Results reported in US12336981B2, “Compounds and compositions for the inhibition of NAMPT” (Valo Health, Inc., priority 2010, dated 2025).
Like-named read-outs stand apart in the source and are kept apart here.

Tests used:
A2780 cells = test: In-vitro cell proliferation assay (SRB), A2780 cells; assay type: cell-based; settings: Homo sapiens, A2780, 72 h, A2780 cells, 72 hours, read-out: A2780 IC50
Summary of the method: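 SRB read-out: 6% TCA fix 1 h at 4° C., stain, Tris solubilize, A570. Media-only background subtracted; % inhibition from two compound concentrations.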

NAMPT = biological target: T1, NAMPT (Homo sapiens, UniProt P43490); test: Biochemical inhibition assay: NAMPT enzymatic reaction, NMN quantified by mass spectrometry; settings: read-out: Biochem IC50
T1 construct: His tag; host or cells: E. coli
T1 sequence (P43490 whole entry): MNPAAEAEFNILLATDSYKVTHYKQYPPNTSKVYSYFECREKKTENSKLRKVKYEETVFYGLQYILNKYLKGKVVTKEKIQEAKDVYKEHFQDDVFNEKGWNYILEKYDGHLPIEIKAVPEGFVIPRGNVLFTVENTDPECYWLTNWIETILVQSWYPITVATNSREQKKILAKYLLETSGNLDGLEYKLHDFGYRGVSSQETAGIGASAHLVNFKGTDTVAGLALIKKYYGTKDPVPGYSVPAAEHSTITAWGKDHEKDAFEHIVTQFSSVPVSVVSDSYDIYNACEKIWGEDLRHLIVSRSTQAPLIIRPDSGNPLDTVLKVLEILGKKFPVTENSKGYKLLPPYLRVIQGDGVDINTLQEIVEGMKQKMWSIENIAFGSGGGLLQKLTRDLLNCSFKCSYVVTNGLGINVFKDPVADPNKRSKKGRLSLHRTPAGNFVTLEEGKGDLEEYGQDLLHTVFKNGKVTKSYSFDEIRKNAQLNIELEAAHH
Summary of the method: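 Inhibition of E. coli-expressed His-tagged human NAMPT, measured as NMN formation by mass spectrometry after a 30 min room-temperature reaction containing 1 μM NAM, 100 μM PRPP and 2.5 mM ATP.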

Cn1cc2cc(S(=O)(=O)c3ccc(CNC(=O)c4cc5ccncc5s4)cc3)ccc2n1 [N-{[4-(2-methyl-2H-indazole-5-sulfonyl)phenyl]methyl}thieno[2,3-c]pyridine-2-carboxamide]
IC50 (A2780 cells; SRB): 3.3 nM | IC50 (NAMPT; NAMPT enzymatic assay): 5.5 nM

Cc1ncccc1S(=O)(=O)c1ccc(CNC(=O)c2cc3cnccc3[nH]2)cc1 [N-{[4-(2-methylpyridine-3-sulfonyl)phenyl]methyl}-1H-pyrrolo[3,2-c]pyridine-2-carboxamide]
IC50 (A2780 cells; SRB): 24 nM | IC50 (NAMPT; NAMPT enzymatic assay): 180 nM

O=C(NCc1ccc(S(=O)(=O)c2ccccc2)cc1)c1cc2nccnc2s1 [N-{[4-(benzenesulfonyl)phenyl]methyl}thieno[2,3-b]pyrazine-6-carboxamide]
IC50 (A2780 cells; SRB assay): > 30000 nM | IC50 (NAMPT; NAMPT enzymatic reaction): 52 nM

COc1cc(Cl)ccc1S(=O)(=O)c1ccc(CNC(=O)c2ccc3nccn3c2)cc1 [N-({4-[(4-chloro-2-methoxybenzene)sulfonyl]phenyl}methyl)imidazo[1,2-a]pyridine-6-carboxamide]
IC50 (A2780 cells; SRB): 12.6 nM | IC50 (NAMPT; NAMPT enzymatic reaction): 18.7 nM

CCCn1cc(S(=O)(=O)c2ccc(CNC(=O)c3ccc4nccn4c3)cc2)cn1 [N-{[4-(1-propyl-1H-pyrazole-4-sulfonyl)phenyl]methyl}imidazo[1,2-a]pyridine-6-carboxamide]
IC50 (A2780 cells; SRB): 5.2 nM | IC50 (NAMPT; NAMPT enzymatic assay): 4.9 nM

Cc1cc(S(=O)(=O)c2ccc(CNC(=O)c3cc4ccncc4o3)cc2)ccc1F
IC50 (A2780 cells; SRB): 6 nM | IC50 (NAMPT; NAMPT enzymatic reaction): 13.2 nM

Cc1cc(C)n(-c2cccc(S(=O)(=O)c3ccc(CNC(=O)c4cnc5nccn5c4)cc3)c2)n1
IC50 (A2780 cells; SRB): 4.1 nM | IC50 (NAMPT; NAMPT enzymatic assay): 1.8 nM

O=C(NCc1ccc(S(=O)(=O)c2cccc3c2OCO3)cc1)c1cnc2nccn2c1 [N-{[4-(2H-1,3-benzodioxole-4-sulfonyl)phenyl]methyl}imidazo[1,2-a]pyrimidine-6-carboxamide]
IC50 (A2780 cells; SRB): 93.3 nM | IC50 (NAMPT; NAMPT enzymatic assay): 2.9 nM

O=C(NCc1ccc(S(=O)(=O)c2cccc3c2Oc2ccccc2S3)cc1)c1cnc2nccn2c1 [N-{[4-(phenoxathiine-4-sulfonyl)phenyl]methyl}imidazo[1,2-a]pyrimidine-6-carboxamide]
IC50 (A2780 cells; SRB): 4.2 nM | IC50 (NAMPT; NAMPT enzymatic assay): 2.1 nM

COc1cc(F)ccc1NS(=O)(=O)c1ccc(CNC(=O)c2cc3cnccc3[nH]2)cc1 [N-({4-[(4-fluoro-2-methoxyphenyl)sulfamoyl]phenyl}methyl)-1H-pyrrolo[3,2-c]pyridine-2-carboxamide]
IC50 (A2780 cells; SRB assay): > 30000 nM | IC50 (NAMPT; NAMPT enzymatic reaction): 3140 nM

COc1ccccc1NS(=O)(=O)c1ccc(CNC(=O)c2cc3cnccc3[nH]2)cc1 [N-({4-[(2-methoxyphenyl)sulfamoyl]phenyl}methyl)-1H-pyrrolo[3,2-c]pyridine-2-carboxamide]
IC50 (A2780 cells; SRB assay): 2150 nM | IC50 (NAMPT; NAMPT enzymatic reaction): 89 nM

N#Cc1ccc(S(=O)(=O)c2ccc(CNC(=O)c3cc4ccncc4o3)cc2)cc1 [N-({4-[(4-cyanobenzene)sulfonyl]phenyl}methyl)furo[2,3-c]pyridine-2-carboxamide]
IC50 (A2780 cells; SRB): 30.9 nM | IC50 (NAMPT; NAMPT enzymatic reaction): 5.3 nM

CCOc1ccc(S(=O)(=O)c2ccc(CNC(=O)c3cc4ccncc4o3)cc2)cc1 [N-({4-[(4-ethoxybenzene)sulfonyl]phenyl}methyl)furo[2,3-c]pyridine-2-carboxamide]
IC50 (A2780 cells; SRB): 7.1 nM | IC50 (NAMPT; NAMPT enzymatic reaction): 2.5 nM

CC(=O)c1ccccc1NS(=O)(=O)c1ccc(CNC(=O)c2cc3cnccc3[nH]2)cc1 [N-({4-[(2-acetylphenyl)sulfamoyl]phenyl}methyl)-1H-pyrrolo[3,2-c]pyridine-2-carboxamide]
IC50 (A2780 cells; SRB assay): 5 nM | IC50 (NAMPT; NAMPT enzymatic reaction): 5 nM

O=C(NCc1ccc(S(=O)(=O)c2cncc(C(F)(F)F)c2)cc1)c1cnc2[nH]ncc2c1 [N-({4-[5-(trifluoromethyl)pyridine-3-sulfonyl]phenyl}methyl)-1H-pyrazolo[3,4-b]pyridine-5-carboxamide]
IC50 (A2780 cells; SRB): 4 nM | IC50 (NAMPT; NAMPT enzymatic assay): 11 nM

O=C(NCc1ccc(S(=O)(=O)c2cnn(-c3cccc(Cl)c3)c2)cc1)c1cc2ccncc2s1 [N-({4-[1-(3-chlorophenyl)-1H-pyrazole-4-sulfonyl]phenyl}methyl)thieno[2,3-c]pyridine-2-carboxamide]
IC50 (A2780 cells; SRB): 13.9 nM | IC50 (NAMPT; NAMPT enzymatic assay): 4.1 nM

O=C(NCc1ccc(S(=O)(=O)c2ccccc2C(F)(F)F)cc1)c1cnc2nccn2c1
IC50 (A2780 cells; SRB): 100 to 1000 nM | IC50 (NAMPT; NAMPT enzymatic assay): 10 nM

COc1c(F)cccc1S(=O)(=O)c1ccc(CNC(=O)c2cc3ccncc3o2)cc1
IC50 (A2780 cells; SRB): 30.9 nM | IC50 (NAMPT; NAMPT enzymatic reaction): 16.6 nM

Cn1cc2cc(S(=O)(=O)c3ccc(CNC(=O)c4cnc5nccn5c4)cc3)ccc2n1 [N-{[4-(2-methyl-2H-indazole-5-sulfonyl)phenyl]methyl}imidazo[1,2-a]pyrimidine-6-carboxamide]
IC50 (A2780 cells; SRB): 8.2 nM | IC50 (NAMPT; NAMPT enzymatic assay): 1.2 nM

Cn1ncc2cc(S(=O)(=O)c3ccc(CNC(=O)c4cc5ccncc5s4)cc3)ccc21 [N-{[4-(1-methyl-1H-indazole-5-sulfonyl)phenyl]methyl}thieno[2,3-c]pyridine-2-carboxamide]
IC50 (A2780 cells; SRB): 1.6 nM | IC50 (NAMPT; NAMPT enzymatic assay): 1.5 nM

Cc1cc(C)c(S(=O)(=O)c2ccc(CNC(=O)c3ccc4nccn4c3)cc2)cc1C [N-({4-[(2,4,5-trimethylbenzene)sulfonyl]phenyl}methyl)imidazo[1,2-a]pyridine-6-carboxamide]
IC50 (A2780 cells; SRB): 14.1 nM | IC50 (NAMPT; NAMPT enzymatic reaction): 9.34 nM

O=C(NCc1ccc(S(=O)(=O)Nc2ccc3cn[nH]c3c2)cc1)c1cc2cnccc2[nH]1 [N-({4-[(1H-indazol-6-yl)sulfamoyl]phenyl}methyl)-1H-pyrrolo[3,2-c]pyridine-2-carboxamide]
IC50 (A2780 cells; SRB assay): 5440 nM | IC50 (NAMPT; NAMPT enzymatic reaction): 135 nM

O=C(NCc1ccc(S(=O)(=O)c2cc(F)ccc2CO)cc1)c1cc2cnccc2[nH]1
IC50 (A2780 cells; SRB): 67.5 nM | IC50 (NAMPT; NAMPT enzymatic assay): 16.9 nM

CC(C)COc1cc(F)cc(S(=O)(=O)c2ccc(CNC(=O)c3cc4ccncc4s3)cc2)c1
IC50 (A2780 cells; SRB): 7.5 nM | IC50 (NAMPT; NAMPT enzymatic assay): 4.8 nM

O=C(NCc1ccc(S(=O)(=O)c2cccc(C(=O)NC3CCCC3)c2)cc1)c1cnc2nccn2c1
IC50 (A2780 cells; SRB): 48.3 nM | IC50 (NAMPT; NAMPT enzymatic assay): 4.7 nM

O=C(NCc1ccc(S(=O)(=O)c2ccc(Cl)cc2)cc1)c1cnc2nccn2c1
IC50 (A2780 cells; SRB): 23.6 nM | IC50 (NAMPT; NAMPT enzymatic reaction): 2.5 nM

Cn1ncc2ccc(S(=O)(=O)c3ccc(CNC(=O)c4cnc5[nH]ncc5c4)cc3)cc21 [N-{[4-(1-methyl-1H-indazole-6-sulfonyl)phenyl]methyl}-1H-pyrazolo[3,4-b]pyridine-5-carboxamide]
IC50 (A2780 cells; SRB): 3 nM | IC50 (NAMPT; NAMPT enzymatic assay): 4 nM

O=C(NCc1ccc(S(=O)(=O)c2ccc(-n3cccn3)nc2)cc1)c1ccc2nccn2c1 [N-({4-[6-(1H-pyrazol-1-yl)pyridine-3-sulfonyl]phenyl}methyl)imidazo[1,2-a]pyridine-6-carboxamide]
IC50 (A2780 cells; SRB): 1.9 nM | IC50 (NAMPT; NAMPT enzymatic assay): 4 nM

Cc1cc(C)cc(S(=O)(=O)c2ccc(CNC(=O)c3ccc4nccn4c3)cc2)c1 [N-({4-[(3,5-dimethylbenzene)sulfonyl]phenyl}methyl)imidazo[1,2-a]pyridine-6-carboxamide]
IC50 (A2780 cells; SRB): 3.17 nM | IC50 (NAMPT; NAMPT enzymatic reaction): 6.76 nM

COc1cc(Cl)ccc1S(=O)(=O)c1ccc(CNC(=O)c2cnc3nccn3c2)cc1
IC50 (A2780 cells; SRB): 24.7 nM | IC50 (NAMPT; NAMPT enzymatic reaction): 3.3 nM

Cc1ccncc1S(=O)(=O)c1ccc(CNC(=O)c2cc3ccncc3s2)cc1 [N-{[4-(4-methylpyridine-3-sulfonyl)phenyl]methyl}thieno[2,3-c]pyridine-2-carboxamide]
IC50 (A2780 cells; SRB): 22.5 nM | IC50 (NAMPT; NAMPT enzymatic assay): 29.2 nM

O=C(NCc1ccc(S(=O)(=O)c2ccc(Cl)cc2C(F)(F)F)cc1)c1cc2ccncc2s1
IC50 (A2780 cells; SRB): 9.6 nM | IC50 (NAMPT; NAMPT enzymatic assay): 7 nM

O=C(NCc1ccc(S(=O)(=O)c2cccc(Cl)c2)cc1)c1ccc2nccn2c1 [N-({4-[(3-chlorobenzene)sulfonyl]phenyl}methyl)imidazo[1,2-a]pyridine-6-carboxamide]
IC50 (A2780 cells; SRB): 3.07 nM | IC50 (NAMPT; NAMPT enzymatic reaction): 9.08 nM

Cc1cc(S(=O)(=O)c2ccc(CNC(=O)c3cnc4[nH]ncc4c3)cc2)ccc1F
IC50 (A2780 cells; SRB): 8.3 nM | IC50 (NAMPT; NAMPT enzymatic reaction): 5 nM

O=C(NCc1ccc(S(=O)(=O)c2ccc(C(F)(F)F)cc2Cl)cc1)c1cc2cnccc2[nH]1
IC50 (A2780 cells; SRB): 25.4 nM | IC50 (NAMPT; NAMPT enzymatic assay): 127 nM

O=C(NCc1ccc(S(=O)(=O)c2ccccc2Oc2ccccc2)cc1)c1cc2ccncc2o1
IC50 (A2780 cells; SRB): 1000 to 10000 nM | IC50 (NAMPT; NAMPT enzymatic reaction): 20.4 nM

COc1ccc(S(=O)(=O)c2ccc(CNC(=O)c3ccc4nccn4c3)cc2)c(F)c1 [N-({4-[(2-fluoro-4-methoxybenzene)sulfonyl]phenyl}methyl)imidazo[1,2-a]pyridine-6-carboxamide]
IC50 (A2780 cells; SRB): 22.9 nM | IC50 (NAMPT; NAMPT enzymatic reaction): 41.3 nM

CN(C)C(=O)c1ccccc1S(=O)(=O)c1ccc(CNC(=O)c2cc3cnccc3[nH]2)cc1 [N-[(4-{[2-(dimethylcarbamoyl)benzene]sulfonyl}phenyl)methyl]-1H-pyrrolo[3,2-c]pyridine-2-carboxamide]
IC50 (A2780 cells; SRB assay): 484 nM | IC50 (A2780 cells; SRB): 100 to 1000 nM | IC50 (NAMPT; NAMPT enzymatic assay): 100 to 1000 nM | IC50 (NAMPT; NAMPT enzymatic reaction): 951 nM

Cc1ccncc1S(=O)(=O)c1ccc(CNC(=O)c2cc3ccncc3o2)cc1 [N-{[4-(4-methylpyridine-3-sulfonyl)phenyl]methyl}furo[2,3-c]pyridine-2-carboxamide]
IC50 (A2780 cells; SRB): 62 nM | IC50 (NAMPT; NAMPT enzymatic assay): 25.2 nM

O=C(NCc1ccc(NS(=O)(=O)c2ccccc2OC(F)(F)F)cc1)c1cc2cnccc2[nH]1 [N-[(4-{[2-(trifluoromethoxy)benzene]sulfonamido}phenyl)methyl]-1H-pyrrolo[3,2-c]pyridine-2-carboxamide]
IC50 (A2780 cells; SRB assay): 1 nM | IC50 (NAMPT; NAMPT enzymatic reaction): 3 nM

O=C(NCc1ccc(S(=O)(=O)c2cccc3c2Oc2ccccc2S3)cc1)c1cc2cnccc2[nH]1 [N-{[4-(phenoxathiine-4-sulfonyl)phenyl]methyl}-1H-pyrrolo[3,2-c]pyridine-2-carboxamide]
IC50 (A2780 cells; SRB assay): 0.9 nM | IC50 (NAMPT; NAMPT enzymatic reaction): 5 nM

Cc1cc(Cl)cc(S(=O)(=O)c2ccc(CNC(=O)c3ccc4nccn4c3)cc2)c1
IC50 (A2780 cells; SRB): 2 nM | IC50 (NAMPT; NAMPT enzymatic reaction): 6.4 nM

O=C(NCc1ccc(S(=O)(=O)c2ccccc2)cc1)c1ccc2cnccc2n1 [N-{[4-(benzenesulfonyl)phenyl]methyl}-1,6-naphthyridine-2-carboxamide]
IC50 (A2780 cells; SRB): > 10000 nM | IC50 (NAMPT; NAMPT enzymatic assay): 2850 nM
